In patent US4734376A, “Process for the spectrophotometric measurement of lithium ion employing a chromogenic aza-12-crown-4- ether” (The President & Trustees of the Miami University, priority 1986, dated 1988):
Entries after “also recorded” stand apart in the source; their conditions may differ. Read-outs that look alike come from different tables or passages of the source. Each block holds one molecule with its values, some of them ahead of it.

What was measured:
[1] = cited from earlier work
[2] = Determination of acid dissociation constants K1 and K2 by spectrophotometric titration; assay type: physicochemical; conditions: μ = 0.1 (CsCl), aqueous
Description: A 50 ml aqueous solution containing the crown reagent of Example 5 (8.70×10^-5 M), hydrochloric acid (6×10^-4 M), and cesium chloride (0.1 M) was titrated with potassium hydroxide [0.1 M (below pH12), and 1 M (above pH12)], using a Metrohm automatic titrator, Dosimat E535 equipped with Potentiograph E536. The titration was interrupted in every 0.3-1.5 pH increase for the measurement of the absorption spectrum of the solution. A 3-4 ml portion of the solution was taken to a cuvette, the spectrum was recorded on a Hewlett-Packard 8450A spectrometer, and the solution was returned to the titration vessel using a pipet. The magnitude of the spectrum was corrected in order to adjust for dilution upon titration, and corrected results shown in FIG. 1.
[formula] where K1 and K2 denote the acid dissociation constants, and KML a complex formation constant. By assuming no significant complex-formation, an absorbance A at any wavelength and the total concentration of the reagent [HL]t are written as
A=εHLH.spsb.+ [HLH^+ ]+εHL
[HL]+εLL.spsb.- [L^- ] (4)
[HL]t =[HLH^ […] ]+[HL]+[L^- ] (5)
where ε's are molar absorption coefficients. […]
At 342.8 nm and at pH ≥9.7, the absorbance deviating from the isosbestic point reflects the decay of HL and the growth of L-, so that these absorbance data can be used for the evaluation of -logK2 using Eq. (7). […]

[3] = Determination of extraction constant KML^ex, lithium ion; assay type: physicochemical; conditions: for -log K^ex LiL (extraction constant): solvent chloroform
Excerpt: (§1) Extraction equilibria are illustrated in FIG. 2 and in the following equation: [formula] where [M^+ ]t denotes a total alkali metal concentration. By assuming [L^-a ]>>[HLa ]+[MLa ], and [M^+ ]t >>[HL]t,
(§2) [HL]t =[HLo ]+[MLo ]+[L^-a ] (12)
(§3) Combining Eq. (8), (11), (12), and (13) gives [formula] where Δε=εMLo -εHLo, and E° denotes the E value in the absence of the metal ion in the system (E°=^ε HLo). […] The absorbance at the isosbestic point 401.4 nm shown in FIG. 1 gives εL.spsb.-.sbsb.a, so that the values of E and Eo, which are necessary for the plot, can be obtained experimentally.
(§4) Determination of the partition equilibrium system was made in a manner similar to that employed in Example 7. The concentrations [HL]t, [M^+ ]t, and [OH^- ] were 5.35×10^-5 M, 4×10^-3 M-2 M (as chloride), and 10^-2 M-10^-1 M (as potassium hydroxide), respectively. Chloroform was used as the organic medium.
(§5) In order to confirm the important assumption [La^- ]>>[HLa]+[MLa ], Eq.(11) (the left equation) was used for the evaluation of E instead of Eq.(15), which was derived from Eq.(11) under the assumption, and the obtained extraction constants compared with those obtained using Eq.(15). When Eq.(11) was applied, the species HLo and MLo in the organic layer were extracted into 0.1M hydrochloric acid as HLH^+, and the concentration of HLH+was determined spectrophotometrically and equated to [HLo ]+[MLo ]in Eq.(11). The extraction constants obtained in this way are […]

[4] = Determination of extraction constant KML^ex, sodium ion; assay type: physicochemical; conditions: for -log K^ex NaL (extraction constant): solvent chloroform
Excerpt: as §1, §2, §3, §4, §5

[5] = Effect of sodium ion on lithium determination; assay type: physicochemical; conditions: 30-fold excess of sodium ions to lithium ions (Na+:Li+ weight ratio 30:1); versus Li+ alone; chloroform layer (Example 9: 400 nm)
Description: The effect of sodium ion in the system was determined in a procedure similar to that used in Example 7. A series of six round-bottomed flasks containing 5 ml of chloroform, and 5 ml of an aqueous solution containing aza-12-crown-4 reagent (6.7×10^-4 M), lithium chloride (1×10^-4 =0.694 μg ml^-1), and a variable amount of sodium chloride [sodium chloride was added to five of these flasks in 0.001M increments whereby the [NaCl]aq =1×10^-3 M to 5×10^-3 M (23 μg ml^-1 through 115 μg ml^-1); one flask served as a sodium-free blank]. Absorbance of the organic layer was measured on a spectrophotomer. The results are illustrated in FIG. 4.

[6] = Effect of organic solvents and bases on response to lithium and sodium ion; assay type: physicochemical
Description: Three solvents--chloroform, 1,2-dichloroethane and methylene chloride--werecompared using potassium hydroxide and sodium hydroxide as bases. […] At 0.1M hydroxide, however, large differences were observed both between the cations and between the organic solvents. […] The best stability of the absorbance after the separation of organic layer from the equilibrium system was also observed for this system.
Various other organic solvents were tested as organic media with a 0.01 M potassium hydroxide.

[7] = pH dependence of the structures; assay type: physicochemical
[8] = μ = 0.1 (CH3)4NCl; reported by Nakamura et al; cited from earlier work
[9] = solvent 1,2-dichloroethane; pH not specified; reported by Nakamura et al; cited from earlier work
[10] = obtained using Eq. (11), organic species back-extracted into 0.1M hydrochloric acid, chloroform

SMILES: C1COCCN2CCOCCN(CCO1)CCOCC2 [cryptand [2,1,1]]
sensitivity to lithium ions ([1]; cryptand itself, without ion pairing agent): not sensitive to lithium ions
extraction of lithium ions compared with reagent of Nakamura et al ([1]; with ion pairing agent resazurin): more selectively and more efficiently

SMILES: O=[N+]([O-])c1ccc(O)c(CN2CCOCCOCCOCCOCC2)c1 [aza-15-crown-5, N-(2-hydroxy-5-nitrobenzyl)-aza-15-crown-5]
-log K1 (acid dissociation constant) [8]: 5.79
-log K2 (acid dissociation constant) [8]: 9.69
-log K^ex LiL (extraction constant) ([1]; solvent 1,2-dichloroethane, pH not specified, reported by Nakamura et al): 9.15
-log K^ex NaL (extraction constant) [9]: 9.76

Further lines, with some results ahead:

-log K1 (acid dissociation constant) [2]: 5.77
-log K2 (acid dissociation constant; pK2) [2]: 10.31
-log K^ex LiL (extraction constant) ([3]; 0.05M KOH): 10.23
-log K^ex LiL (extraction constant) ([3]; 0.1M KOH): 10.18
ratio of KLiL^ex to KNaL^ex (selectivity) ([3]; compared with aza-15-crown-5): much greater than the aza-15-crown5
KLiL^ex smaller than that of prior art aza-15-crown-5, factor ([3]; compared with prior art aza-15-crown-5): smaller by a factor of ten
-log KLiL^ex (extraction constant) [3, 10]: 10.25
-log K^ex NaL (extraction constant) ([4]; 0.05M KOH): 12.49
-log K^ex NaL (extraction constant) ([4]; 0.1M KOH): 12.50
-log KNaL^ex (extraction constant) [4, 10]: 12.47
pH at which the structure predominates ([7]; listed as iii): approximately 8
SMILES: O=[N+]([O-])c1ccc(O)c(CN2CCOCCOCCOCC2)c1 [aza-12-crown-4, 1-(2-oxy-5-nitrobenzyl)-1-hydro-1-aza-4,7,10-trioxacyclododecane]
dependence of -log KLiL^ex on hydroxide concentration ([3]; 10^-2 M-10^-1 M KOH, chloroform): not significantly dependent on the hydroxide concentration employed
increase in absorbance in presence of sodium ion [5]: 8%
sensitivity and interference differences between bases and solvents ([6]; 0.01 M hydroxide, chloroform, 1,2-dichloroethane, methylene chloride, KOH and NaOH): no significant sensitivity and interference differences were observed
sensitivity and sodium interference, bases and solvents ([6]; 0.1M hydroxide, chloroform, 1,2-dichloroethane, methylene chloride, KOH and NaOH): Potassium hydroxide gave higher sensitivity in both chloroform and methylene chloride than sodium hydroxide, but not in 1,2-dichloroethane; also recorded: Methylene chloride exhibited the highest sensitivity when used with potassium hydroxide, but was subject to increased interference by sodium ions; also recorded: The combination of methylene chloride and sodium hydroxide allowed most of the reagent to pass into the organic layer; also recorded: optimum combination of high sensitivity, low interference, and low blank absorption was achieved by a system employing 0.1M potassium hydroxide and chloroform
response / extraction by organic solvent ([6]; organic solvents tested with 0.01 M potassium hydroxide): no response of the reagent to lithium and sodium ion was observed; also recorded: Methyisobutyl-ketone showed only slight extraction of the metal complex; also recorded: No extraction occurred into benzene, carbon tetrachloride, chlorobenzene, and trichlorethylene
response with triethylamine as base ([6]; triethylamine 1M in CHCl3, compared with KOH): the response to lithium ions was smaller and the response to sodium ions was larger
response with triethylamine plus sodium hydroxide ([6]; triethylamine 1M in CHCl3 and sodium hydroxide 0.1M): intermediate response to lithium ions, and the response was not stable

pH at which the structure predominates [7]: greater than 11
SMILES: O=[N+]([O-])c1ccc(O)c(CN2CCOCCOCCOCC2)c1 [ii, 1-(2-oxy-5-nitrobenzyl)1-aza-4,7,10-trioxacyclododecane]

pH at which the structure predominates [7]: less than 5
SMILES: O=[N+]([O-])c1ccc(O)c(CN2CCOCCOCCOCC2)c1 [i, 1-(2-hydroxy-5-nitrobenzyl)-1-hydro-1-aza-4,7,10-trioxacyclododecane]
